The term EC50 denotes the midpoint of the concentration-response curve. Higher therefore signals weaker potency.

The target in the first assay is FXR (Homo sapiens (Human), UniProt Q96RI1). The assay can be described thus: transient human FXR/Gal4-luciferase reporter assay. The assay is classed as cell-based.
Sequence of FXR (Q96RI1 262-486): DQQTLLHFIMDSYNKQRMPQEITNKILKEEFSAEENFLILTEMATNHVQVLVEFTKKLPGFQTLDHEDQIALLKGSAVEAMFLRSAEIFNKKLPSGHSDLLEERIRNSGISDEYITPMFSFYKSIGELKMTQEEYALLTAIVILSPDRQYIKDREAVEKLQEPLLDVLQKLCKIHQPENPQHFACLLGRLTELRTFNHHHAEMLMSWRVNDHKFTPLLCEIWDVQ
Conditions: not given
The procedure, abridged:
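Compound exposure ran overnight at 37 °C and activity was measured as luminescence with Steady-Glo reagent. The cells were a HEK293 line stably expressing firefly luciferase under five Gal4 response elements. They were transiently transfected, one night beforehand, with a plasmid encoding Gal4 DNA-binding domain fused to the human FXR ligand-binding domain.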
(In general: Reporter assays use an easily measured gene product as a stand-in for the process of interest.)
For the compound `CS(=O)(=O)Nc1ccc(-c2cccc(N(CC34CCC(c5noc(C6(C(F)(F)F)CC6)n5)(CC3)CC4)C(=O)C34CC(F)(C3)C4)c2)cc1` [Example 523, 3-fluoro-N-(4′-(methylsulfonamido)-[1,1′-biphenyl]-3-yl)-N-((4-(5-(1-(trifluoromethyl)cyclopropyl)-1,2,4-oxadiazol-3-yl)bicyclo[2.2.2]octan-1-yl)methyl)bicyclo[1.1.1]pentane-1-carboxamide], the EC50 worked out at 189 nM.
As to `CC(C)(O)c1ccc(-c2cccc(N(CC34CCC(c5noc(C(C)(C)F)n5)(CC3)CC4)C(=O)N3CCN(CC(F)(F)F)CC3)c2)cc1` [Example 645], the response was half-maximal at 229 nM (EC50).
Turning to `Cc1nc2ccc(-c3cncc(N(CC45CCC(c6nc(C(C)(C)C)no6)(CC4)CC5)C(=O)C45CC(F)(C4)C5)c3)cc2s1` [Example 474, N-((4-(3-(tert-butyl)-1,2,4-oxadiazol-5-yl)bicyclo[2.2.2]octan-1-yl)methyl)-3-fluoro-N-(5-(2-methylbenzo[d]thiazol-6-yl)pyridin-3-yl)bicyclo[1.1.1]pentane-1-carboxamide], the EC50 came out at 541 nM.
The same measure, in the same setting: in the case of `Cc1nc2ccc(-c3ccnc(N(CC45CCC(c6noc(C(C)(C)C)n6)(CC4)CC5)C(=O)C45CC(F)(C4)C5)c3)cc2s1` [Example 537, N-((4-(5-(tert-butyl)-1,2,4-oxadiazol-3-yl)bicyclo[2.2.2]octan-1-yl)methyl)-3-fluoro-N-(4-(2-methylbenzo[d]thiazol-6-yl)pyridin-2-yl)bicyclo[1.1.1]pentane-1-carboxamide] it was 67 nM.
As for `O=C(N(CC12CCC(c3ccc(C(F)(F)F)cn3)(CC1)CC2)c1cccc(-c2ccc(OC(F)F)cc2)c1)C12CC(F)(C1)C2` [Example 493, N-(4′-(difluoromethoxy)-[1,1′-biphenyl]-3-yl)-3-fluoro-N-((4-(5-(trifluoromethyl)pyridin-2-yl)bicyclo[2.2.2]octan-1-yl)methyl)bicyclo[1.1.1]pentane-1-carboxamide], the EC50 turned out to be 552 nM.
In turn, `CCOc1ncc(-c2cccc(N(CC34CCC(c5nc(C(F)F)no5)(CC3)CC4)C(=O)C34CC(F)(C3)C4)c2)cn1` [Example 470, N-((4-(3-(difluoromethyl)-1,2,4-oxadiazol-5-yl)bicyclo[2.2.2]octan-1-yl)methyl)-N-(3-(2-ethoxypyrimidin-5-yl)phenyl)-3-fluorobicyclo[1.1.1]pentane-1-carboxamide] came in with an EC50 of 164 nM.
In the case of `CCOc1ncc(-c2cccc(N(CC34CCC(c5nc(C(C)(C)C)no5)(CC3)CC4)C(=O)C3CC(O)(C(F)(F)F)C3)c2)cn1` [Example 507, (1S,3S)—N-((4-(3-(tert-butyl)-1,2,4-oxadiazol-5-yl)bicyclo[2.2.2]octan-1-yl)methyl)-N-(3-(2-ethoxypyrimidin-5-yl)phenyl)-3-hydroxy-3-(trifluoromethyl)cyclobutane-1-carboxamide], the response was half-maximal at 188 nM (EC50).

The assay is the same for the next values; noted with them: Gal4-hFXR fusion construct, HEK293 reporter cells; response relative to 8 μM GW-4064.
In the case of `O=C(N(CC12CCC(c3nc(C4CC4)no3)(CC1)CC2)c1cccc(-c2ccc(OC(F)F)cc2)c1)C12CC(F)(C1)C2` [Example 308, N-((4-(3-cyclopropyl-1,2,4-oxadiazol-5-yl)bicyclo[2.2.2]octan-1-yl)methyl)-N-(4′-(difluoromethoxy)-[1,1′-biphenyl]-3-yl)-3-fluorobicyclo[1.1.1]pentane-1-carboxamide], it took 15 nM to reach a half-maximal effect (EC50).
Turning to `CC(C)(C)c1noc(C23CCC(CN(C(=O)C45CC(F)(C4)C5)c4cccc(-c5ccc(OC(F)F)cn5)c4)(CC2)CC3)n1` [Example 373, N-((4-(3-(tert-butyl)-1,2,4-oxadiazol-5-yl)bicyclo[2.2.2]octan-1-yl)methyl)-N-(3-(5-(difluoromethoxy)pyridin-2-yl)phenyl)-3-fluorobicyclo[1.1.1]pentane-1-carboxamide], a half-maximal effect (EC50) was put at 88 nM.
Consider `O=C(N(CC12CCC(c3noc(C4(F)CC4)n3)(CC1)CC2)c1cccc(C2CC2)c1)C12CC(F)(C1)C2` [Example 573, N-(3-cyclopropylphenyl)-3-fluoro-N-((4-(5-(1-fluorocyclopropyl)-1,2,4-oxadiazol-3-yl)bicyclo[2.2.2]octan-1-yl)methyl)bicyclo[1.1.1]pentane-1-carboxamide], for which a half-maximal response (EC50) required 44 nM.
With `O=C(N(CC12CCC(c3nc(C4CC4)no3)(CC1)CC2)c1cccc(-c2cnc3nc(C4CC4)sc3c2)c1)C12CC(F)(C1)C2` [Example 276, N-((4-(3-cyclopropyl-1,2,4-oxadiazol-5-yl)bicyclo[2.2.2]octan-1-yl)methyl)-N-(3-(2-cyclopropylthiazolo[4,5-b]pyridin-6-yl)phenyl)-3-fluorobicyclo[1.1.1]pentane-1-carboxamide], it took 77.5 nM to reach a half-maximal effect (EC50).
In the case of `CC(C)Oc1ccc(-c2ccnc(N(CC34CCC(c5noc(C(C)(C)F)n5)(CC3)CC4)C(=O)OC(C)(C)C(F)(F)F)n2)cc1` [Example 636, 1,1,1-trifluoro-2-methylpropan-2-yl ((4-(5-(2-fluoropropan-2-yl)-1,2,4-oxadiazol-3-yl)bicyclo[2.2.2]octan-1-yl)methyl)(4-(4-isopropoxyphenyl)pyrimidin-2-yl)carbamate], the EC50 was 68 nM.
For `CC(C)(Oc1ccc(-c2cccc(N(CC34CCC(c5noc(C(C)(C)F)n5)(CC3)CC4)C(=O)[C@H]3C[C@](O)(C(F)(F)F)C3)c2)cc1)C(N)=O` [Example 654, (cis)-N-(4′-((1-amino-2-methyl-1-oxopropan-2-yl)oxy)-[1,1′-biphenyl]-3-yl)-N-((4-(5-(2-fluoropropan-2-yl)-1,2,4-oxadiazol-3-yl)bicyclo[2.2.2]octan-1-yl)methyl)-3-hydroxy-3-(trifluoromethyl)cyclobutane-1-carboxamide], the EC50 is 169 nM.
Compound `CC(F)(F)c1nc(C23CCC(CN(C(=O)C45CC(F)(C4)C5)c4ccc(F)c(N5CCC5)c4)(CC2)CC3)no1` [Example 575, N-(3-(azetidin-1-yl)-4-fluorophenyl)-N-((4-(5-(1,1-difluoroethyl)-1,2,4-oxadiazol-3-yl)bicyclo[2.2.2]octan-1-yl)methyl)-3-fluorobicyclo[1.1.1]pentane-1-carboxamide] gave an EC50 of 410 nM.
Same read-out and setting: the result for `CC(C)(C)COC(=O)N(CC12CCC(c3noc(C(C)(F)F)n3)(CC1)CC2)c1cc(-c2ccc(C(C)(C)O)cc2)c(F)cn1` [Example 619, Neopentyl ((4-(5-(1,1-difluoroethyl)-1,2,4-oxadiazol-3-yl)bicyclo[2.2.2]octan-1-yl)methyl) (5-fluoro-4-(4-(2-hydroxypropan-2-yl)phenyl)pyridin-2-yl) carbamate] reads 28 nM.
Consider `CCOc1ncc(-c2cccc(N(CC34CCC(c5noc(C6(C)CC6)n5)(CC3)CC4)C(=O)C34CC(F)(C3)C4)c2)cn1` [Example 396, N-(3-(2-ethoxypyrimidin-5-yl)phenyl)-3-fluoro-N-((4-(5-(1-methylcyclopropyl)-1,2,4-oxadiazol-3-yl)bicyclo[2.2.2]octan-1-yl)methyl)bicyclo[1.1.1]pentane-1-carboxamide], for which a half-maximal effect (EC50) was put at 46 nM.
For the compound `CC(C)(F)c1nc(C23CCC(CN(c4cccc(-c5ccc(-c6nonc6N)cc5)c4)C(=O)[C@H]4C[C@](O)(C(F)(F)F)C4)(CC2)CC3)no1` [Example 662, (cis)-N-(4′-(4-amino-1,2,5-oxadiazol-3-yl)-[1,1′-biphenyl]-3-yl)-N-((4-(5-(2-fluoropropan-2-yl)-1,2,4-oxadiazol-3-yl)bicyclo[2.2.2]octan-1-yl)methyl)-3-hydroxy-3-(trifluoromethyl)cyclobutane-1-carboxamide], the concentration for a half-maximal effect (EC50) stood at 574 nM.
In turn, `CC(C)Oc1ccc(-c2ccnc(N(CC34CCC(c5ccc(C(C)(F)F)cn5)(CC3)CC4)C(=O)[C@H]3C[C@@](C)(OC(F)F)C3)c2)cc1` [Example 640, (cis)-N-((4-(5-(1,1-difluoroethyl)pyridin-2-yl)bicyclo[2.2.2]octan-1-yl)methyl)-3-(difluoromethoxy)-N-(4-(4-isopropoxyphenyl)pyridin-2-yl)-3-methylcyclobutane-1-carboxamide] gave an EC50 of 27 nM.
`N#Cc1cc(-c2cccc(N(CC34CCC(c5nc(C6CC6)no5)(CC3)CC4)C(=O)C34CC(F)(C3)C4)c2)ccc1F` [Example 294, N-(3′-cyano-4′-fluoro-[1,1′-biphenyl]-3-yl)-N-((4-(3-cyclopropyl-1,2,4-oxadiazol-5-yl)bicyclo[2.2.2]octan-1-yl)methyl)-3-fluorobicyclo[1.1.1]pentane-1-carboxamide] returned an EC50 of 579 nM.
The compound `O=C(N(CC12CCC(c3nc(C4CC4)no3)(CC1)CC2)c1cccc(-c2ccc3c(c2)OC(F)(F)O3)c1)C12CC(F)(C1)C2` [Example 284, N-((4-(3-cyclopropyl-1,2,4-oxadiazol-5-yl)bicyclo[2.2.2]octan-1-yl)methyl)-N-(3-(2,2-difluorobenzo[d][1,3]dioxol-5-yl)phenyl)-3-fluorobicyclo[1.1.1]pentane-1-carboxamide] returned an EC50 of 233 nM.
The compound `N#Cc1cccc(-c2cccc(N(CC34CCC(c5nc(C6CC6)no5)(CC3)CC4)C(=O)C34CC(F)(C3)C4)c2)c1` [Example 258, N-(3′-cyano-[1,1′-biphenyl]-3-yl)-N-((4-(3-cyclopropyl-1,2,4-oxadiazol-5-yl)bicyclo[2.2.2]octan-1-yl)methyl)-3-fluorobicyclo[1.1.1]pentane-1-carboxamide] gave an EC50 of 479 nM.
The compound `CCOc1cnc(-c2cccc(N(CC34CCC(c5noc(C(C)(C)C)n5)(CC3)CC4)C(=O)C34CC(F)(C3)C4)c2)nc1` [Example 451, N-((4-(5-(tert-butyl)-1,2,4-oxadiazol-3-yl)bicyclo[2.2.2]octan-1-yl)methyl)-N-(3-(5-ethoxypyrimidin-2-yl)phenyl)-3-fluorobicyclo[1.1.1]pentane-1-carboxamide] registered an EC50 of 47 nM.
In turn, `O=C(N(CC12CCC(c3nc(C4CC4)no3)(CC1)CC2)c1cccc(-c2ccc3nc(O)ccc3c2)c1)C12CC(F)(C1)C2` [Example 331, N-((4-(3-cyclopropyl-1,2,4-oxadiazol-5-yl)bicyclo[2.2.2]octan-1-yl)methyl)-3-fluoro-N-(3-(2-hydroxyquinolin-6-yl)phenyl)bicyclo[1.1.1]pentane-1-carboxamide] yielded an EC50 of 231 nM.

Values taken from patent US11254663B2 (BRISTOL-MYERS SQUIBB COMPANY, priority 2019, dated 2022).
